Assay results published in patent US20220144879A1, “FLUORESCENT PROBE FOR DETECTING CANCER” (The University of Tokyo, priority 2019, published 2022).

What was measured:
[1] = tested on: breast cancer and benign tumor tissues (clinical mammary gland specimen); test: Two-color imaging with HMRef-α-D-Man and GGT probe in combination (FIG. 9); set-up: species or system human; conditions: 50 μM each probe; 30 minutes after administration of both probes
Experimental: Two-color imaging was performed under the following conditions using the glycosidase-reactive fluorescent probe 5 (HMRef-α-D-Man) (concentration: 50 μM) and a GGT probe gGlu-2-OMeSiR600 (concentration: 50 μM) in combination.
200 μL of a PBS solution of the fluorescent probes at the above concentrations was added to each well in which a clinical mammary gland specimen was placed, and fluorescence images at 1, 3, 5, 10, 20, and 30 minutes were acquired at 540 nm and 640 nm using the Maestro in vivo imaging system (PerkinElmer Inc.). Each fluorescence intensity value was quantified and compared by taking Regions Of Interest (ROIs) on Maestro software. For the glycosidase-reactive fluorescent probe 5, Ex/Em=465-30 nm/515 nm long-pass was used as the filter setting. For the GGT probe, Ex/Em=570-40 nm/610 nm long-pass was used.
The exposure time (in milliseconds) of the fluorescence image is indicated at the bottom of each image.

[2] = tested on: intact glycosidase activities in normal breast, IDC (breast cancer), and FA (benign tumor) tissues; test: Screening of glycosidase-reactive fluorescent probes for detecting breast cancer and benignancy (fluorescence increase in clinical mammary gland specimens); set-up: species or system human; conditions: probe 50 μM in PBS, increase from 1 minute to 30 minutes after addition, 540 nm
Experimental: Using the 12 types of glycosidase-reactive fluorescent probes synthesized above (refer to FIG. 1), screening for the detection of breast cancer and benignancy was performed in the following procedure.
200 μL of a PBS solution of each fluorescent probe at a concentration of 50 μM was added to each well in which a clinical mammary gland specimen was placed, and fluorescence images at 1, 3, 5, 10, 20, and 30 minutes were acquired at 540 nm using a Maestro in vivo imaging system (PerkinElmer Inc.). Each fluorescence intensity value was quantified and compared by taking Regions Of Interest (ROIs) on Maestro software. Ex/Em=465−30 nm/515 nm long-pass was used as the filter setting.
The increase in fluorescence indicates increase after the lapse of 1 minute to 30 minutes since the addition of the fluorescent probe. Each dot represents, from left to right, increase in fluorescence in normal breast, IDC, DCIS, and FA tissues.

SMILES: COc1ccccc1C1=C2C=CC(=N)C=C2[Si](C)(C)c2cc(NC(=O)CC[C@H](N)C(=O)O)ccc21 [gGlu-2OME-SiR600, gGlu-2-OMeSiR600]
- red fluorescence (640 nm) [1]: emitted red fluorescence in both breast cancer (malignant tumor) and the benign tumor

SMILES: COc1ccccc1C1=C2C=CC(=N)C=C2[Si](C)(C)c2cc(NC(=O)CC[C@H](N)C(=O)O)ccc21 [compound 7]
- increase in fluorescence [2]: increase in fluorescence in both the breast cancer and FA (benign tumor) tissues
